Measured values from patent US7052850B2, “Isolated human EDG-4 receptor” (priority 1997, dated 2006).

What was measured:
Type in all cases: cell-based
[1] = target: EDG-1 (Homo sapiens, UniProt P21453); test: SRE luciferase reporter (2XSREtk-p4Luc-zeo) in 293-EBNA cells, EDG-1; conditions: Assay 3; 3 μM; 6 hours
Description: The protocol described in Example 11 for Assay 1 was allowed except for the following changes: • 1) 100 mm plates of 293-EBNA ith a confluency of ˜80% were used for transfection, • 2) SRE Cotransfection: 0.5 μg of 2XSREtk-p4Luc-zeo reporter DNA and 3.5 μg pcDNA3, EDG-1, EDG-3 pC3-hE3P2, different from the clone used in Assay 2 of Example 11) or the newly cloned human EDG-4 (pC3-hedg4#36); NF-κB Cotransfection: 2 μg 6XNFκBtk-p4LUc-zeo reporter DNA and 2.0 μg pcDNA3, EDG-1, EDG-3 (pC3-hE3HP2), or EDG-4 (pC3-hedg4#36). Expression plasmid and reporter plasmid DNA samples were combined and diluted in 750 μl of DMEM/F12 (serum free media) and 20 μl Plus Reagent (Lipofectamine Plus Kit, Life Technologies Cat. 109640-13), and incubated at room temperature for 15 min. • 3) 30 μl Lipofectamine Reagent (Lipofectamine Plus Kit) was diluted in 750 μl DMEM/F12. The diluted Lipofectamine was then combined with the DNA/Plus mixture and incubated at room temperature for 15 min. • 4) The 293-EBNA plates were washed once with PBS and 5 ml DMEM/F12 was added to each plate. • 5) DNA/Plus/Lipofectamine mixture was added to each plate of 293-EBNA cells. […]

[2] = target: rat EDG-4 (Rattus norvegicus, UniProt P47752); test: IL-8 response in COS-1 cells transfected with rat EDG-4 expression plasmid; design: transient transfection with a eukaryotic expression vector expressing full-length rat edg-4 cDNA; expressed in transfected cells; conditions: COS-1, EDG-4 expression plasmid; 5 μm S1P overnight
[3] = tested on: COS-1 cells; test: IL-8 response in control COS-1 cells (empty vector pcDNA3); conditions: control cells transfected with pcDNA3; 5 μm S1P
[4] = target: T1, EDG-6 (Homo sapiens, UniProt Q9HBW0); test: NF-κB reporter in 293-EBNA cells, EDG-6; conditions: 10 μM LPA overnight
T1 construct: expressed in transfected cells; host or cells: 293-EBNA
Description: (§1) LPA, like S1P, is abundant in serum, but not plasma. Moreover, LPA is produced as a consequence of phospholipase A2 with or without the contribution of phospholipase D (depending on the phospholipid substrate). […] To date we have identified three subtypes of edg receptors that respond to LPA as an agonist. These are EDG-2, […] (referred to also as LPA1, LPA2 and LPA3, respectively (Chun, J, Contos, JJA and Munroe, DG. 1998. A growing family of receptor genes for lysophophatidid acid (LPA) and other lyso-phospholipids. Cell Biochem Biophys (in press)). The EDG-5 receptor is set out in co-pending U.S. application Ser. No. 08/997,803 to MUNROE et al., incorporated herein to reference and the amino acid sequence and cDNA sequence for the EDG-6 receptor is set out in FIGS. 21 and 22, respectively. To determine whether these receptors might mediate inflammatory responses, each was cotransfected separately with SRE, NF-κB or AP-1 reporter genes. […] This transcription factor, like NF-κB has been implicated in inflammatory and neoplastic signal transduction, though the gene targets of its action are largely distinct from those of NF-κB (Adcock I M. 1997. Transcription factors as activators of gene transcription; AP-1 and NF-κB. Monaldi Arch Chest Dis 52:178–186. Review). […]

[5] = target: T1, EDG-6; test: SRE reporter in 293-EBNA cells, EDG-6; conditions: 10 μM LPA
Description: as §1

[6] = tested on: pcDNA3-transfected 293-EBNA cells; test: AP-1 reporter in 293-EBNA cells, empty vector pcDNA3; conditions: 10 μM LPA
Description: as §1

T1 sequence (Q9HBW0 with tags, fused parts or gaps): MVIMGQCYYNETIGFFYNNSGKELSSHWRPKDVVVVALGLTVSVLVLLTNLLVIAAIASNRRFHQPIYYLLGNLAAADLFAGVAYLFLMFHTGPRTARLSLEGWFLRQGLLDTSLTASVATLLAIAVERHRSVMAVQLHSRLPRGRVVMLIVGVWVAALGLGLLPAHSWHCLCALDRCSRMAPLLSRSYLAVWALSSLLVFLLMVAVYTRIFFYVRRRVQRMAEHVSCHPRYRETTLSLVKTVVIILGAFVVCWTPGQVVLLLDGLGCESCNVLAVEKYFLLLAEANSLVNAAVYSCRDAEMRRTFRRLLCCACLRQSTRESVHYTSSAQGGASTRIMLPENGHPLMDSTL
EDG-1, sequence (P21453 whole entry): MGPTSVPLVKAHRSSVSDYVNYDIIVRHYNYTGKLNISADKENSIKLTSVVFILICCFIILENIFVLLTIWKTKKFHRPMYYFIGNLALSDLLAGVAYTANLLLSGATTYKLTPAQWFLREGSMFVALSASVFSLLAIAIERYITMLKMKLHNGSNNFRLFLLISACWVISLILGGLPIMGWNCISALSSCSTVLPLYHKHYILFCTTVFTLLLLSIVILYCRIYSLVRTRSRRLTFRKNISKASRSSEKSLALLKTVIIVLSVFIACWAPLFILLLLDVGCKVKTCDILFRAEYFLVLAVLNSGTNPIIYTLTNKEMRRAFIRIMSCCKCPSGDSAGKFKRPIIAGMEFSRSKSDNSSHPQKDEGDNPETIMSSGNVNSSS
rat EDG-4, sequence (P47752 whole entry): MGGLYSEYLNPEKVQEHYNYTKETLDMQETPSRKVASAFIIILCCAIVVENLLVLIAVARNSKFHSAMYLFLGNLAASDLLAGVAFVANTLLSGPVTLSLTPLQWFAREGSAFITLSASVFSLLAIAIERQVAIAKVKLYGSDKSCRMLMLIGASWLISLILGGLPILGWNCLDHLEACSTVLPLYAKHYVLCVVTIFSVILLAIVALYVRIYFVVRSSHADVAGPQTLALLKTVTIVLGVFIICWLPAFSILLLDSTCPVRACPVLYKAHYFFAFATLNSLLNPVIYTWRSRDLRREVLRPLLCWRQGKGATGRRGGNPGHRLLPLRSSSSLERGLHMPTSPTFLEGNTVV

Compound	increase in luciferase activity (SRE reporter) [1]	increase in IL-8 release compared to untreated cells [2]	IL-8 response to S1P [3]	activation of the NF-κB reporter [4]	induction of the SRE reporter [5]	endogenous AP-1 reporter response vs untreated control cells [6]
CCCCCCCCCCCCC/C=C/[C@@H](O)[C@@H](N)COP(=O)(O)O [S1P, sphingosine 1-phosphate]	8 fold	2 fold	No IL-8			
lysophosphatidic acid [LPA]				3–4 fold	strongly induced	about 1.5 fold
